Measured values taken from ChEMBL document CHEMBL5226387, “A Drimane Meroterpenoid Borate as a Synchronous Ca+ Oscillation Inhibitor from the Coral-Associated Fungus Alternaria sp. ZH-15” (J Nat Prod, 2023).

Key:
Assay type in all cases: functional, cell-based
[1] = Neuroprotective activity in C57BL/6J mouse primary neocortical neurons assessed as inhibition of spontaneous Ca2+ oscillation amplitude measured for 15 mins by Fluo-4 dye based fluorescence analysis; settings: Primary neocortical neuron, 0.25 h
[2] = Neuroprotective activity in C57BL/6J mouse primary neocortical neurons assessed as inhibition of spontaneous Ca2+ oscillation frequency measured for 15 mins by Fluo-4 dye based fluorescence analysis; settings: Primary neocortical neuron, 0.25 h
[3] = Neuroprotective activity in C57BL/6J mouse primary neocortical neurons assessed as inhibition of 4-AP-induced spontaneous Ca2+ oscillation amplitude treated with compound 15 mins prior to 4-AP challenge and measured after 10 mins by Fluo-4 dye based fluorescence analysis; settings: Primary neocortical neuron
[4] = Neuroprotective activity in C57BL/6J mouse primary neocortical neurons assessed as inhibition of 4-AP-induced spontaneous Ca2+ oscillation frequency treated with compound 15 mins prior to 4-AP challenge and measured after 10 mins by Fluo-4 dye based fluorescence analysis; settings: Primary neocortical neuron

Structure (SMILES)	IC50 [1] [µM]	IC50 [2] [µM]	IC50 [3] [µM]	IC50 [4] [µM]
COc1cc(-c2cc3c(c(=O)o2)C[C@@]24OB(O)O[C@]5(CC[C@@]2(C)O3)C(C)(C)C=CC(=O)[C@]45C)cc(OC)c1OC	16	15	34	12
COc1cc(-c2cc3c(c(=O)o2)C[C@]2(O)[C@@]4(C)C(=O)C=CC(C)(C)[C@]4(O)CC[C@@]2(C)O3)cc(OC)c1OC [TERRITREM B]	5.4	8.6	27	14
